Measurements taken from patent US20230167127A1, “COMPOUNDS AND THEIR USE IN THE TREATMENT OF BACTERIAL INFECTION” (Hoffmann-La Roche Inc., priority 2020, published 2023).
Where two headings read alike, the source gives them in different places.

Test system: Escherichia coli ATCC 25922
Assay: 50% growth inhibitory concentration (IC50) determination, Iso-Sensitest broth dilution
Type: cell-based
Conditions: strain Escherichia coli ATCC 25922, 10-point broth dilution, optical density at 600 nm over 16 h, read-out: Escherichia coli growth inhibition IC50
Protocol: 50% Growth Inhibitory Concentration (IC50) Determination
The in vitro antimicrobial activity of the compounds was determined according to the following procedure:
The assay used a 10-point Iso-Sensitest broth dilution method to measure quantitatively the in vitro
ATCC 25922, Acinetobacter baumannii ATCC 17961, Klebsiella pneumoniae ATCC 43816 and Staphylococcus aureus ATCC 29213.
Stock compounds in DMSO were serially twofold diluted (e.g. range from 50 to 0.097 μM final concentration) in 384 wells microtiter plates and inoculated with 50 μL of the bacterial suspension in Iso-
ell of 50 μL/well. Microtiter plates were incubated at 35±2° C.
Bacterial cell growth was determined with the measurement of optical density at λ=600 nm each 20 minutes over a time course of 16 h.
Growth inhibition was calculated during the logarithmic growth of the bacterial cells with
Table 1 provides the 50% growth inhibitory concentrations (IC50) in micromoles per liter of the compounds of present invention obtained against the strain Escherichia coli ATCC 25922.

[1] = Escherichia coli, ATCC25922, 16 h

| IC50 [1] [µM] | IC50 [µM] | SMILES |
| --- | --- | --- |
| 0.351 | – | CC1(CCNCC2Cc3c(Cl)cccc3C2N)CN(c2cnc3c(n2)NC(=O)CO3)C(=O)O1 (racemic) [Example 375, 6-[5-methyl-2-oxo-5-[2-[(rac-1,2-trans-1-amino-4-chloro-2,3-dihydro-1H-inden-2-yl)methylamino]ethyl]-1,3-oxazolidin-3-yl]-4H-pyrazino[2,3-b][1,4]oxazin-3-one] |
| – | 1.18 | Cc1ncc(F)c2c1CC(NCC(O)CC1CN(c3cnc4c(n3)NC(=O)CO4)C(=O)O1)C2 (single isomer, unassigned; isomer b) [Example 314, 6-[2-Oxo-5-[3-[(4-fluoro-1-methyl-6,7-dihydro-5H-cyclopenta[c]pyridin-6-yl)amino]-2-hydroxypropyl]-1,3-oxazolidin-3-yl]-4H-pyrazino[2,3-b][1,4]oxazin-3-one; formic acid, Isomer B] |
| 0.138 | – | Cc1ncc(F)c2c1CC(CCN1CC3(C1)CN(c1cnc4c(n1)NC(=O)CO4)C(=O)O3)C2 (stereo not shown) [Example 326, 6-[2-[2-(4-fluoro-1-methyl-6,7-dihydro-5H-cyclopenta[c]pyridin-6-yl)ethyl]-6-oxo-5-oxa-2,7-diazaspiro[3.4]octan-7-yl]-4H-pyrazino[2,3-b][1,4]oxazin-3-one] |
| 0.592 | – | CCn1cc(C(=O)O)c(=O)c2ccc3c(c21)CC(CNCCC1CN(c2ccc4c(n2)NC(=O)CO4)C(=O)O1)C3 (stereo not shown) [Example 275, 1-Ethyl-4-oxo-8-[[2-[2-oxo-3-(3-oxo-4H-pyrido[3,2-b][1,4]oxazin-6-yl)-1,3-oxazolidin-5-yl]ethylamino]methyl]-8,9-dihydro-7H-cyclopenta[h]quinoline-3-carboxylic acid] |
| < 0.0977 | – | Cc1nc(Cl)c2c(c1F)CC(CNCCC1CN(c3cnc4c(n3)NC(=O)CO4)C(=O)O1)C2 (stereo not shown) [Example 431, 6-[5-[2-[(1-chloro-4-fluoro-3-methyl-6,7-dihydro-5H-cyclopenta[o]pyridin-6-yl)methylamino]ethyl]-2-oxo-1,3-oxazolidin-3-yl]-4H-pyrazino[2,3-b][1,4]oxazin-3-one; formic acid] |
| 0.659 | – | O=C1COc2ncc(N3CC(CCNCC4Cc5cc(OCCN6C(=O)CCC6=O)cc(F)c5C4)OC3=O)nc2N1 (stereo not shown) [Example 345] |
| < 0.0977 | – | N#Cc1cc(OCc2cocn2)cc2c1CC(CNCCC1CN(c3cnc4c(n3)NC(=O)CO4)C(=O)O1)C2 (stereo not shown) [Example 386, 6-(1,3-oxazol-4-ylmethoxy)-2-[[2-[2-oxo-3-(3-oxo-4H-pyrazino[2,3-b][1,4]oxazin-6-yl)-1,3-oxazolidin-5-yl]ethylamino]methyl]-2,3-dihydro-1H-indene-4-carbonitrile] |
| < 0.0977 | – | Cc1c(F)cnc2c1CC(CN1CCC3(CC1)CN(c1cnc4c(n1)NC(=O)CO4)C(=O)O3)C2 (stereo not shown) [Example 301, 6-[8-[(3-fluoro-4-methyl-6,7-dihydro-5H-cyclopenta[b]pyridin-6-yl)methyl]-2-oxo-1-oxa-3,8-diazaspiro[4.5]decan-3-yl]-4H-pyrazino[2,3-b][1,4]oxazin-3-one] |
| 0.211 | – | Cc1cnc(-c2nc(OCC3(N)CC3)c(C)c3c2CC(CNCCC2CN(c4ccc5c(n4)NC(=O)CO5)C(=O)O2)C3)s1 (stereo not shown) [Example 216, 6-[5-[2-[[3-[(1-aminocyclopropyl)methoxy]-4-methyl-1-(5-methyl-1,3-thiazol-2-yl)-6,7-dihydro-5H-cyclopenta[c]pyridin-6-yl]methylamino]ethyl]-2-oxo-1,3-oxazolidin-3-yl]-4H-pyrido[3,2-b][1,4]oxazin-3-one] |
| 0.942 | – | N#Cc1cccc2c1CC(CN(CCN)CCC1CN(c3ccc4c(n3)NC(=O)CO4)C(=O)O1)C2 (stereo not shown) [Example 233, 2-[[2-Aminoethyl-[2-[2-oxo-3-(3-oxo-4H-pyrido[3,2-b][1,4]oxazin-6-yl)-1,3-oxazolidin-5-yl]ethyl]amino]methyl]-2,3-dihydro-1H-indene-4-carbonitrile; formic acid] |
| 0.161 | – | Cn1cc(COc2cc(C#N)c3c(c2)CC(CNCCC2CN(c4cnc5c(n4)NC(=O)CO5)C(=O)O2)C3)cn1 (stereo not shown) [Example 390, 6-[(1-methylpyrazol-4-yl)methoxy]-2-[[2-[2-oxo-3-(3-oxo-4H-pyrazino[2,3-b][1,4]oxazin-6-yl)-1,3-oxazolidin-5-yl]ethylamino]methyl]-2,3-dihydro-1H-indene-4-carbonitrile] |
| < 0.0977 | – | Cc1ncc(F)c2c1C[C@@H](CNCC[C@@H]1CN(c3cnc4c(n3)NC(=O)CO4)C(=O)O1)C2 [Example 427, 6-[(5R)-5-[2-[[(6R)-4-Fluoro-1-methyl-6,7-dihydro-5H-cyclopenta[c]pyridin-6-yl]methylamino]ethyl]-2-oxo-1,3-oxazolidin-3-yl]-4H-pyrazino[2,3-b][1,4]oxazin-3-one] |
| 0.844 | – | Cc1ncc(F)c2c1CC(N)(CCNCC1CN(c3ccc4c(n3)NC(=O)CO4)C(=O)O1)C2 (stereo not shown) [Example 280, 6-[5-[[2-(6-amino-4-fluoro-1-methyl-5,7-dihydrocyclopenta[c]pyridin-6-yl)ethylamino]methyl]-2-oxo-1,3-oxazolidin-3-yl]-4H-pyrido[3,2-b][1,4]oxazin-3-one] |
| 0.635 | – | CCn1cc(C(=O)O)c(=O)c2ccc3c(c21)CC(CNCCC1CN(c2cnc4c(n2)NC(=O)CO4)C(=O)O1)C3 (stereo not shown) [Example 276, 1-Ethyl-4-oxo-8-[[2-[2-oxo-3-(3-oxo-4H-pyrazino[2,3-b][1,4]oxazin-6-yl)-1,3-oxazolidin-5-yl]ethylamino]methyl]-8,9-dihydro-7H-cyclopenta[h]quinoline-3-carboxylic acid] |

Second part, the compound before the results:

| SMILES | IC50 [1] [µM] | IC50 [µM] |
| --- | --- | --- |
| O=C1COc2ncc(N3CC(CCNCC4Cc5ccnc(Cl)c5C4)OC3=O)nc2N1 (stereo not shown) [Example 38, 6-[5-[2-[(1-chloro-6,7-dihydro-5H-cyclopenta[c]pyridin-6-yl)methylamino]ethyl]-2-oxo-1,3-oxazolidin-3-yl]-4H-pyrazino[2,3-b][1,4]oxazin-3-one] | < 0.0977 | – |
| N#Cc1cccc2c1CC(CNCCC1CN(c3cnc4c(c3)NC(=O)CO4)C(=O)O1)C2 (stereo not shown) [Example 46, 2-[[2-[2-oxo-3-(2-oxo-1H-pyrido[2,3-b][1,4]oxazin-7-yl)-1,3-oxazolidin-5-yl]ethylamino]methyl]-2,3-dihydro-1H-indene-4-carbonitrile] | 0.356 | – |
| N#Cc1cc(OCC2(N)CC2)cc2c1CC(CCN1CC3(C1)CN(c1ccc4c(n1)NC(=O)CO4)C(=O)O3)C2 (stereo not shown) [Example 197, 6-((1-aminocyclopropyl)methoxy)-2-(2-(6-oxo-7-(3-oxo-3,4-dihydro-2H-pyrido[3,2-b][1,4]oxazin-6-yl)-5-oxa-2,7-diazaspiro[3.4]octan-2-yl)ethyl)-2,3-dihydro-1H-indene-4-carbonitrile] | < 0.0977 | – |
| NC1(COc2cc(Cl)c3c(c2)CC(NCCCC2CN(c4ccc5c(n4)NC(=O)CO5)C(=O)O2)C3)CC1 (stereo not shown) [Example 180, 6-[5-[3-[[6-[(1-aminocyclopropyl)methoxy]-4-chloro-2,3-dihydro-1H-inden-2-yl]amino]propyl]-2-oxo-1,3-oxazolidin-3-yl]-4H-pyrido[3,2-b][1,4]oxazin-3-one] | < 0.0977 | – |
| Cc1nccc2c1CC(CNCCC1CN(c3ccc4c(n3)NC(=O)CO4)C(=O)O1)C2 (stereo not shown) [Example 88, 6-[5-[2-[(1-methyl-6,7-dihydro-5H-cyclopenta[c]pyridin-6-yl)methylamino]ethyl]-2-oxo-1,3-oxazolidin-3-yl]-4H-pyrido[3,2-b][1,4]oxazin-3-one] | 0.168 | – |
| CNCCOc1nc(C)c2c(c1C)CC(CNCCC1CN(c3ccc4c(n3)NC(=O)CO4)C(=O)O1)C2 (stereo not shown) [Example 173, 6-[5-[2-[[1,4-dimethyl-3-[2-(methylamino)ethoxy]-6,7-dihydro-5H-cyclopenta[c]pyridin-6-yl]methylamino]ethyl]-2-oxo-1,3-oxazolidin-3-yl]-4H-pyrido[3,2-b][1,4]oxazin-3-one] | 0.194 | – |
| CNC(=O)COc1cc(C)c2c(c1C)CC(CNCCC1CN(c3ccc4c(n3)NC(=O)CS4)C(=O)O1)C2 (stereo not shown) [Example 114, 2-[[4,7-dimethyl-2-[[2-[2-oxo-3-(3-oxo-4H-pyrido[3,2-b][1,4]thiazin-6-yl)-1,3-oxazolidin-5-yl]ethylamino]methyl]-2,3-dihydro-1H-inden-5-yl]oxy]-N-methylacetamide] | 0.217 | – |
| NC1c2cccc(Cl)c2CC1CN1CCC2(CC1)CN(c1ccc3c(n1)NC(=O)CO3)C(=O)O2 (racemic) [Example 212, 6-[2-oxo-8-[[rac-1,2-trans-1-amino-4-chloro-2,3-dihydro-1H-inden-2-yl]methyl]-1-oxa-3,8-diazaspiro[4.5]decan-3-yl]-4H-pyrido[3,2-b][1,4]oxazin-3-one] | < 0.0977 | – |
| N#Cc1cccc2c1CC(NCCNC1CC(=O)N(c3ccc4c(n3)NC(=O)CO4)C1)C2 (stereo not shown) [Example 121, 2-[2-[[5-oxo-1-(3-oxo-4H-pyrido[3,2-b][1,4]oxazin-6-yl)pyrrolidin-3-yl]amino]ethylamino]-2,3-dihydro-1H-indene-4-carbonitrile] | 0.167 | – |
| Cc1nccc2c1CC(CNCCC1CN(c3ccc4c(n3)NC(=O)CO4)C(=O)O1)C2N (racemic) [Example 130, 6-[2-oxo-5-[2-[(rac-5,6-trans-5-amino-1-methyl-6,7-dihydro-5H-cyclopenta[c]pyridin-6-yl)methylamino]ethyl]-1,3-oxazolidin-3-yl]-4H-pyrido[3,2-b][1,4]oxazin-3-one; formic acid] | 0.868 | – |
| CC(N)COc1cc(F)c2c(c1)CC(CNCCC1CN(c3ccc4c(n3)NC(=O)CO4)C(=O)O1)C2 (stereo not shown) [Example 154, 6-[5-[2-[[6-(2-aminopropoxy)-4-fluoro-2,3-dihydro-1H-inden-2-yl]methylamino]ethyl]-2-oxo-1,3-oxazolidin-3-yl]-4H-pyrido[3,2-b][1,4]oxazin-3-one] | < 0.0977 | – |
